CC50 and EC50 data for ten compounds are collected here from patent US8729089B2 (Gilead Sciences, Inc., priority 2006, dated 2014).

Series [1] can be described thus: CC50 assay (CellTiter-Glo) in Huh-7 HCV replicon cells. It is filed as cell-based, human. As to conditions: human, 3 days incubation, CellTiter-Glo readout. The essentials:
(§1)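 Cytotoxicity (CC50) measured by CellTiter-Glo and antiviral activity (EC50) by luciferase signal from lysed cells, both by luminescence. Replicon-bearing Huh-7 cells, 6000 per well, incubated 3 days at 37 °C with threefold-diluted compound (0.5% DMSO for DMSO-dissolved compounds).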

In series [2] the test system is HCV replicon in human hepatoma Huh-7 cell line. Description: Anti-HCV replicon assay (EC50, luciferase). The format is cell-based. As to conditions: Hepatitis C virus, Huh-7, 72 h. The essentials:
as §1

Each structure is given as a SMILES string. pEC50: −log10 of the molar value. Where only a bound is given, the exact number is not on record here.

In series [1], `CN(CCS(C)(=O)=O)c1nc(NCc2ccc(F)cc2)nc2ccc(-c3cccc(N(CCO)S(C)(=O)=O)c3)nc12` [Example 279, N-(3-{2-(4-Fluoro-benzylamino)-4-[(2-methanesulfonyl-ethyl)-methyl-amino]-pyrido[3,2-d]pyrimidin-6-yl}-phenyl)-N-(2-hydroxy-ethyl)-methanesulfonamide] returned a CC50 at 3 days of 5 to 25 µM. This compound showed a pEC50 in series [2] of over 7.00.

Compound `CN(CCS(C)(=O)=O)c1nc(NCc2ccc(F)cc2)nc2ccc(-c3ccc(NC(=O)C(C)(C)N)cc3)nc12` [Example 280, 2-Amino-N-(4-{2-(4-fluoro-benzylamino)-4-[(2-methanesulfonyl-ethyl)-methyl-amino]-pyrido[3,2-d]pyrimidin-6-yl}-phenyl)-2-methyl-propionamide] showed a CC50 at 3 days in series [1] of 5 to 25 µM. In series [2], this compound showed a pEC50 of over 7.00.

`CN(CCS(C)(=O)=O)c1nc(NCc2ccc(F)cc2)nc2ccc(-c3ccc(NC(=O)C4(O)CC4)cc3)nc12` [Example 281, 1-Hydroxy-cyclopropanecarboxylic acid (4-{2-(4-fluoro-benzylamino)-4-[(2-methanesulfonyl-ethyl)-methyl-amino]-pyrido[3,2-d]pyrimidin-6-yl}-phenyl)-amide]: the CC50 at 3 days in series [1] fell in the range of 5 to 25 µM. For the same compound, in series [2], the pEC50 is over 7.00.

The compound `CS(=O)(=O)CCNc1nc(NCc2ccc(F)cc2)nc2ccc(-c3cnc(N)s3)nc12` [Example 282, 6-(2-Amino-thiazol-5-yl)-N2-(4-fluoro-benzyl)-N4-(2-methanesulfonyl-ethyl)-pyrido[3,2-d]pyrimidine-2,4-diamine] showed a CC50 at 3 days in series [1] of over 25 µM. For the same compound, the pEC50 in series [2] was over 7.00.

For the compound `N#CC1(NC(=O)c2ccc(-c3ccc4nc(NCc5ccc(F)cc5)nc(O[C@H]5CCOC5)c4n3)cc2)CC1` [Example 283, N-(1-Cyano-cyclopropyl)-4-[2-(4-fluoro-benzylamino)-4-(tetrahydro-furan-3-yloxy)-pyrido[3,2-d]pyrimidin-6-yl]-benzamide], the CC50 at 3 days in series [1] is under 5 µM. In series [2], this compound had a pEC50 of over 7.00.

As to `CC(C)Nc1cnn(-c2ccc3nc(NCc4ccc(S(N)(=O)=O)cc4)nc(NCC(F)(F)F)c3n2)c1` [Example 284, 4-{[6-(4-Isopropylamino-pyrazol-1-yl)-4-(2,2,2-trifluoro-ethylamino)-pyrido[3,2-d]pyrimidin-2-ylamino]-methyl}-benzenesulfonamide], in series [1], the CC50 at 3 days is over 25 µM. This compound also gave a pEC50 in series [2] of over 7.00.

On to `NS(=O)(=O)c1ccc(CNc2nc(NCC(F)(F)F)c3nc(-n4cncn4)ccc3n2)cc1` [Example 285, 4-{[6-[1,2,4]Triazol-1-yl-4-(2,2,2-trifluoro-ethylamino)-pyrido[3,2-d]pyrimidin-2-ylamino]-methyl}-benzenesulfonamide], for which the CC50 at 3 days in series [1] was over 25 µM. In series [2], this compound gave a pEC50 of over 7.00.

Regarding `NS(=O)(=O)c1ccc(CNc2nc(NCC(F)(F)F)c3nc(-n4ccnc4)ccc3n2)cc1` [Example 286, 4-{[6-Imidazol-1-yl-4-(2,2,2-trifluoro-ethylamino)-pyrido[3,2-d]pyrimidin-2-ylamino]-methyl}-benzenesulfonamide], the CC50 at 3 days in series [1] lay in the range of 5 to 25 µM. Also, the pEC50 in series [2] was over 7.00.

On to `NS(=O)(=O)c1ccc(CNc2nc(NCC(F)(F)F)c3nc(-c4ccc(=O)[nH]c4)ccc3n2)cc1` [Example 287, 4-{[6-(6-Oxo-1,6-dihydro-pyridin-3-yl)-4-(2,2,2-trifluoro-ethylamino)-pyrido[3,2-d]pyrimidin-2-ylamino]-methyl}-benzenesulfonamide], for which the CC50 at 3 days in series [1] was over 25 µM. Further, the pEC50 in series [2] was over 7.00.

For the compound `NS(=O)(=O)c1ccc(CNc2nc(NCC(F)(F)F)c3nc(-c4cc[nH]c(=O)c4)ccc3n2)cc1` [Example 288, 4-{[6-(2-Oxo-1,2-dihydro-pyridin-4-yl)-4-(2,2,2-trifluoro-ethylamino)-pyrido[3,2-d]pyrimidin-2-ylamino]-methyl}-benzenesulfonamide], in series [1], the CC50 at 3 days is over 25 µM. Moreover, the pEC50 in series [2] was over 7.00.
